# Experimental data as given in patent publication US20240216357A1 (SICHUAN HUIYU PHARMACEUTICAL CO., LTD., priority 2021, published 2024).
# Counter-ions that a name gives are not always drawn.
# Tested on: NCI-H1417 cells
# Assay: In vitro cell proliferation detection (CellTiter-Glo, 7 days)
# Type: cell-based
# Details: Homo sapiens, 168 h; NCI-H1417 cells, 7 days, CellTiter-Glo; read-out: NCI-H1417 proliferation inhibition IC50
row,IC50 [nM],SMILES
1,344,"COc1ccc(Nc2c(O)cc(N3CCC(N)CC3)nc2-c2ccc(C#N)c(F)c2)cc1F [Example 64, 4-(6-(4-aminopiperidin-1-yl)-3-(3-fluoro-4-methoxyphenyl)amino)-4-hydroxypyridin-2-yl)-2-flu orobenzonitrile hydrochloride]"
2,2.16,"COc1ccc(-c2c(-c3ccc(C#N)c(F)c3)nc(N3CCC(N)CC3)c3c2cnn3C)cc1O [Example 285, 4-(7-(4-aminopiperidin-1-yl)-4-(3-hydroxy-4-methoxyphenyl)-1-methyl-1H-pyrazolo[3,4-c]pyridin-5-yl)-2-fluorobenzonitrile]"
3,> 1000,"COc1ccc(-c2nc(N3CCC(N)CC3)cc(C#N)c2-c2ccc(C#N)c(F)c2)cc1O [Example 274, 6-(4-aminopiperidin-1-yl)-3-(4-cyano-3-fluorophenyl)-2-(3-hydroxy-4-methoxyphenyl)pyridin-4-carbonitrile]"

# Same assay, conditions: Homo sapiens, NCI-H1417, 168 h, read-out: NCI-H1417 proliferation inhibition IC50(nM)
row,SMILES,IC50 [nM]
1,"Cc1ccc(-c2c(-c3ccc(C#N)cc3)nc3c(N4CCC[C@@H](N)C4)nccn23)cc1 [Example 5, (R)-4-(8-(3-aminopiperidin-1-yl)-3-(p-tolyl)imidazo[1,2-a]pyrazin-2-yl)benzonitrile hydrochloride]",165

# Same assay, conditions: NCI-H1417 cells, 7 days, CellTiter-Glo; read-out: NCI-H1417 proliferation inhibition IC50
row,SMILES,IC50 [nM]
1,"CS(=O)(=O)N1CCN(c2cc(CCCN[C@@H]3C[C@H]3c3ccc(F)cc3)nn(-c3ccc(C#N)cc3)c2=O)CC1 [Example 260, 4-(3-(3-((1R,2S)-2-(4-fluorophenyl)cyclopropyl)amino)-5-(4-(methylsulfonyl)piperazin-1-yl)-6-oxypyridazine-1 (6H)-yl)benzonitrile formate]",46.1

# Target: LSD1 (Homo sapiens (Human), UniProt O60341)
# Assay: LSD1 enzyme activity detection (HTRF)
# Type: biochemical
# Details: HTRF, H3K4me1 substrate; read-out: Inhibition of enzymatic activity of LSD1 IC50
row,SMILES,IC50 [nM]
1,"COc1ccc(-c2c(-c3ccc(C#N)c(C#N)c3)nc(N3C4CCC3CC(N)C4)n3ccnc23)cc1F (centres unmarked) [Example 181, 4-(5-(3-amino-8-azabicyclo [3.2.1]octane-8-yl)-8-(3-fluoro-4-methoxyphenyl)imidazolo[1,2-c]pyrimidin-7-yl) phthalonitrile hydrochloride]",193
2,"Cc1noc2cc(-c3sc(C(=O)N4C5CCC4CC(N)C5)cc3-c3ccc(S(N)(=O)=O)cc3)c(F)cc12 (centres unmarked) [Example 212, 4-(5-(3-amino-8-azabicyclo [3.2.1]octane-8-carbonyl)-2-(5-fluoro-3-methyl-benzo[d]isoxazol-6-yl)thiophen-3-yl)benzene-sulfonamide]",207
3,"COc1ccc(-c2c(O)cc(N3CCC(N)CC3)nc2-c2ccc(C#N)c(F)c2)cc1OC [Example 33, 4-(6-(4-aminopiperidin-1-yl)-3-(3,4-dimethoxyphenyl)-4-hydroxypyridin-2-yl)-2-fluorobenzonitrile hydrochloride]",210
4,"COc1ccc(-c2cc(N3CCC(N)CC3)nc(-c3ccc(C#N)c(F)c3)c2OC)cc1F [Example 102, 4-(6-(4-aminopiperidin-1-yl)-4-(3-fluoro-4-methoxyphenyl)-3-methoxypyridin-2-yl)-2-fluoroben zonitrile]",712
5,"Cc1noc2cc(-c3c(OCc4ccccc4)cc(N4C5CCC4CC(N)C5)nc3-c3ccc(C#N)c(F)c3)c(F)cc12 (centres unmarked) [Example 88, 4-(6-(3-amino-8-azabicyclo [3.2.1]octane-8-yl)-4-(benzyloxy)-3-(5-fluoro-3-methylbenzo[d]isoxazol-6-yl)pyridin-2-yl)-2-fluorobenzonitrile]",566
6,"Cc1noc2cc(-c3sc(C(=O)N4C5CCC4CC(N)C5)cc3-c3ccccc3)c(F)cc12 (centres unmarked) [Example 207, (3-amino-8-azabicyclo [3.2.1]octan-8-yl)(5-(5-fluoro-3-methylbenzo[d]isoxazol-6-yl)-4-phenyithio-phene-2-yl)methanone hydrochloride]",1250
7,"Cc1noc2cc(-c3sc(C(=O)N4C5CCC4CC(N)C5)cc3-c3cccnc3)c(F)cc12 (centres unmarked) [Example 208, (3-amino-8-azabicyclo [3.2.1]octan-8-yl) (5-(5-fluoro-3-methylbenzo [d]isoxazol-6-yl)-4-(pyridin-3-yl)thiophen-2-yl) methanone hydrochloride]",641
8,"N#Cc1ccc(-c2nc(N3CCC(N)CC3)cc(O)c2-c2ccc3c(c2)OC(F)(F)O3)cc1F [Example 30, 4-(6-(4-aminopiperidin-1-yl)-3-(2,2-difluorobenzo[d][1,3]dioxol-5-yl)-4-hydroxypyridin-2-yl)-2-fluorobenzonitrile hydrochloride]",213
9,"CC(C)(O)Cn1ncc2cc(F)c(-c3c(O)cc(N4CCC(N)CC4)nc3-c3ccc(C#N)c(F)c3)cc21 [Example 28, hydrochloride]",441
10,"COc1ccc(-c2c(-c3ccc(C#N)c(C)c3)nc(N3C4CCC3CC(N)C4)n3ccnc23)cc1F (centres unmarked) [Example 184, 4-(5-(3-amino-8-azabicyclo[3.2.1]octane-8-yl)-8-(3-fluoro-4-methoxyphenyl)imidazolo[1,2-c]pyrimidin-7-yl)-2-methylbenzonitrile hydrochloride]",110
11,"Cc1ccc(-c2c(-c3ccc(C#N)cc3)cc3c(N4CCN(C)CC4)nncn23)cc1 [Example 195, 4-(1-(4-methylpiperazin-1-yl)-6-(p-tolyl)pyrrolo[1,2-d][1,2,4]triazine-7-yl)benzonitrile]",208
12,"Cc1noc2cc(-c3sc(C(=O)N4C5CCC4CC(N)C5)cc3-c3ccc4cn[nH]c4c3)c(F)cc12 (centres unmarked) [Example 205, (3-amino-8-azabicyclo [3.2.1]octane-8-yl) (5-(5-fluoro-3-methylbenzo[d]isoxazol-6-yl)-4-(1H-indazol-6-yl)thiophen-2-yl)methanone hydrochloride]",902
13,"COc1ccc(-c2c(-c3cnc(C#N)nc3)nc(N3C4CCC3CC(N)C4)n3ccnc23)cc1F (centres unmarked) [Example 180, 5-(5-(3-amino-8-azabicyclo [3.2.1]octane-8-yl)-8-(3-fluoro-4-methoxyphenyl)imidazolo[1,2-c]pyrimidin-7-yl) pyrimidin-2-carbonitrile]",77.1
14,"Cc1noc2cc(-c3sc(C(=O)N4C5CCC4CC(N)C5)cc3-c3ccc(S(C)(=O)=O)cc3)c(F)cc12 (centres unmarked) [Example 213, (3-amino-8-azabicyclo [3.2.1]octan-8-yl) (5-(5-fluoro-3-methylbenzo [d]isoxazol-6-yl)-4-(4-(methyldimethylsulfoxide-16-sulfonyl)phenyl)thio-phen-2-yl)methanone]",36.7
15,"Cc1ccc(-c2c(-c3ccc(C#N)cc3)cc3c(N4CCC(N)CC4)ccnn23)cc1 [Example 198, hydrochloride]",174
16,Cc1noc2cc(-c3sc(C(=O)N4C5CCC4CC(N)C5)cc3-c3ncccn3)c(F)cc12 (centres unmarked) [Example 211],206
17,"COc1ccc(-c2c(O)cc(NC3CCNCC3)nc2-c2ccc(C#N)c(F)c2)cc1F [Example 40, 2-fluoro-4-(3-(3-fluoro-4-methoxyphenyl)-4-hydroxy-6-(piperidin-4-ylamino)pyridin-2-yl)benzonitrile]",280
18,"CS(=O)(=O)N1CCN(c2cc(CN[C@@H]3C[C@H]3c3ccc(F)cc3)nc(-c3ccc(N4CCOCC4)cc3)n2)CC1 [Example 265, (1R,2S)-2-(4-fluorophenyl)-N-((6-(4-(methylsulfonyl)piperazin-1-yl)-2-(4-morpholinophenyl)pyrimidin-4-yl)methyl) cyclopropane-1-amine]",224
19,"COc1ccc(-c2cnc(N3C4CCCC3CC(N)C4)c(C#N)c2-c2ccc(C#N)c(F)c2)cc1O (centres unmarked) [Example 75, 2-(3-amino-9-azabicyclo [3.3.1]nonan-9-yl)-4-(4-cyano-3-fluorophenyl)-5-(3-hydroxy-4-methoxyphenyl) nicotinonitrile]",500
20,"COc1cc(-c2c(-c3ccc(C#N)c(F)c3)nc(N3CCC(N)CC3)n3ccnc23)ccc1O [Example 141, 4-(5-(4-aminopiperidin-1-yl)-8-(4-hydroxy-3-methoxyphenyl)imidazolo[1,2-c]pyrimidin-7-yl)-2-fluorobenzonitrile formate]",224
21,"Cc1ccc(-c2c(-c3ccc(C#N)cc3)cc3c(N4CCCCC4)nccn23)cc1 [Example 191, 4-(1-(piperidin-1-yl)-6-(p-tolyl)pyrrolo[1,2-a]pyrazin-7-yl)benzonitrile]",104
22,"Cc1noc2cc(-c3sc(C(=O)N4C5CCC4CC(N)C5)cc3-c3cncnc3)c(F)cc12 (centres unmarked) [Example 206, (3-amino-8-azabicyclo [3.2.1]octan-8-yl)(5-(5-fluoro-3-methylbenzo[d]isoxazol-6-yl)-4-(pyrimidine-5-yl)thiophen-2-yl) methanone hydrochloride]",432
23,"COc1ccc(-c2cnc(N3CC4CCC(C3)C4N)c(C#N)c2-c2ccc(C#N)c(F)c2)cc1O (centres unmarked) [Example 74, 2-(8-amino-3-azabicyclo[3.2.1]octane-3-yl)-4-(4-cyano-3-fluorophenyl)-5-(3-hydroxy-4-methoxyphenyl) nicotinonitrile]",166
24,"COc1ccc(-c2cnc(N3C4CCC3CC(N)C4)c(C#N)c2-c2ccc(C#N)c(F)c2)cc1O (centres unmarked) [Example 81, 2-(3-amino-8-azabicyclo [3.2.1]octane-8-yl)-4-(4-cyano-3-fluorophenyl)-5-(3-hydroxy-4-methoxyphenyl) nicotinonitrile]",671
25,"Cc1noc2cc(-c3sc(C(=O)N4C5CCC4CC(N)C5)cc3-c3ccccn3)c(F)cc12 (centres unmarked) [Example 210, (3-amino-8-azabicyclo [3.2.1]octan-8-yl)(5-(5-fluoro-3-methylbenzo[d]isoxazol-6-yl)-4-(pyridin-2-yl)thiophen-2-yl)methanone]",5520
26,"COc1ccc(-c2c(C3CCC(C#N)CC3)nc(N3C4CCC3CC(N)C4)n3ccnc23)cc1F (centres unmarked) [Example 179, 4-(5-(3-amino-8-azadicyclo [3.2.1]octane-8-yl)-8-(3-fluoro-4-methoxyphenyl)imidazolo[1,2-c]pyrimidin-7-yl) cyclohexane-1-carbonitrile hydrochloride]",938

# Same assay, conditions: read-out: Inhibition of enzymatic activity of LSD1 IC50
row,SMILES,IC50 [nM]
1,"N#Cc1ccc(-c2nc(N3CCC(N)CC3)cc(O)c2-c2ccc3[nH]nc(Cl)c3c2)cc1F [Example 20, hydrochloride]",166
